According to patent publication US20210246157A1, “CAMPTOTHECIN DERIVATIVES AND PREPARATION METHODS AND APPLICATIONS THEREOF” (priority 2018, published 2021):
In brackets after ≈: the same amount, converted by molar mass. Counter-ions that a name gives are not always drawn. Like-named read-outs stand apart in the source and are kept apart here.

Experiments:
[1] = Solubility test, equilibrium method, UV-visible spectrophotometry; type: physicochemical; conditions: for solubility: thermodynamic from solid
Method: The solubility test is carried out by equilibrium method. […] An appropriate amount of the compound is weighed and dissolved in 1 mL of methanol solution to prepare a control solution with a certain concentration (C0). The concentration of test solution is calculated according to the following formula: Cx=(Ax/A0)C0, wherein Cx is concentration of test solution, Ax is absorbance of test solution, C0 is concentration of control solution, and A0 is absorbance of control solution.

[2] = Multi-dose in vivo antitumor activity study, mouse weight (Example 20); parameters: species or system mice; conditions: CPT-11 group 10 mg/kg, caudal vein once every 2 days
Method: The drugs are administered through the caudal veins of mice once every 2 days for a total of 7 times.
At the end of the treatment cycle, the orbital venous blood of the mice is collected for later blood routine test, the mice are killed by cervical dislocation method, and tumors are removed immediately and photographed. From day 0, the mice in each group are weighed every three days, and the weights are recorded. The weight average value of each group is calculated, and mouse weight variation curve is drawn according to statistical data. At the end of the treatment cycle, tumors are removed from anesthetized mice immediately and weighted, and the tumor weight of each group is recorded. The tumor inhibition rate (%) is calculated according to the following formula: […]

SW-480 = assay: Cytotoxicity test (MTT, 72 h); conditions: Homo sapiens, SW480, 72 h, read-out: 50% Inhibiting Concentration value (IC50)
Method: (§1) Cells at logarithmic growth period are inoculated in a 96-well plate overnight, then drugs with a certain gradient concentrations are added, and incubation is carried out in a cell culture chamber (5% CO2, 37° C.) for 72 h.

HT-29 = assay: Cytotoxicity test (MTT, 72 h); conditions: Homo sapiens, HT-29, 72 h, read-out: 50% Inhibiting Concentration value (IC50)
Method: as §1

HCT-116 = assay: Cytotoxicity test (MTT, 72 h); conditions: Homo sapiens, HCT-116, 72 h, read-out: 50% Inhibiting Concentration value (IC50)
Method: (§2) In order to investigate the antitumor activities of the compounds, a variety of tumor cell lines for test are selected. Cells at logarithmic growth period are inoculated in a 96-well plate overnight, then drugs with a certain gradient concentrations are added, and incubation is carried out in a cell culture chamber (5% CO2, 37° C.) for 72 h.

A549 = assay: Cytotoxicity test (MTT, 72 h); conditions: Homo sapiens, A549, 72 h, read-out: 50% Inhibiting Concentration value (IC50)
Method: as §2

H1975 = assay: Cytotoxicity test (MTT, 72 h); conditions: Homo sapiens, NCI-H1975, 72 h, read-out: 50% Inhibiting Concentration value (IC50)
Method: as §2

HepG2 = assay: Cytotoxicity test (MTT, 72 h); conditions: Homo sapiens, HepG2, 72 h, read-out: 50% Inhibiting Concentration value (IC50)
Method: as §2

BGC-823 = assay: Cytotoxicity test (MTT, 72 h); conditions: Homo sapiens, BGC-823, 72 h, read-out: 50% Inhibiting Concentration value (IC50)
Method: as §2

ECA-109 = assay: Cytotoxicity test (MTT, 72 h); conditions: Homo sapiens, ECa-109, 72 h, read-out: 50% Inhibiting Concentration value (IC50)
Method: as §2

K562 = assay: Cytotoxicity test (MTT, 72 h); conditions: Homo sapiens, K562, 72 h, read-out: 50% Inhibiting Concentration value (IC50)
Method: as §2

PC3 = assay: Cytotoxicity test (MTT, 72 h); conditions: Homo sapiens, PC-3, 72 h, read-out: 50% Inhibiting Concentration value (IC50)
Method: as §2

143B = assay: Cytotoxicity test (MTT, 72 h); conditions: Homo sapiens, read-out: 50% Inhibiting Concentration value (IC50)
Method: as §2

MDA-MB-231 = assay: Cytotoxicity test (MTT, 72 h); conditions: Homo sapiens, MDA-MB-231, 72 h, read-out: 50% Inhibiting Concentration value (IC50)
Method: as §2

Hela = assay: Cytotoxicity test (MTT, 72 h); conditions: Homo sapiens, read-out: 50% Inhibiting Concentration value (IC50)
Method: as §2

TPC-1 = assay: Cytotoxicity test (MTT, 72 h); conditions: Homo sapiens, TPC1, 72 h, read-out: 50% Inhibiting Concentration value (IC50)
Method: as §1

SKOV-3 = assay: Cytotoxicity test (MTT, 72 h); conditions: Homo sapiens, SK-OV-3, 72 h, read-out: 50% Inhibiting Concentration value (IC50)
Method: as §1

PANC-1 = assay: Cytotoxicity test (MTT, 72 h); conditions: Homo sapiens, PANC-1, 72 h, read-out: 50% Inhibiting Concentration value (IC50)
Method: as §1

tumor = conditions: Santi et al., J Med Chem. 2014; cited from earlier work
[3] = common drug solvents and water; Santi et al.; cited from earlier work
[4] = aqueous buffer, PBS pH 7.4, read-out: Solubility in PBS (pH = 7.4)
[5] = water, read-out: Solubility in Water
[6] = aqueous with cosolvent or surfactant or cyclodextrin, 0.1% aqueous solution of Tween-80, read-out: Solubility in 0.1% Tween-80
[7] = saline or isotonic, normal saline, read-out: Solubility in Normal Saline (NS)

Row | Structure (SMILES) | solubility [1, 4] [µg/mL] | solubility [1, 5] [µg/mL] | IC50 (SW-480) [µM] | IC50 (HT-29) [µM] | IC50 (HCT-116) [µM] | IC50 (A549) [µM] | IC50 (H1975) [µM] | IC50 (HepG2) [µM] | IC50 (BGC-823) [µM] | IC50 (ECA-109) [µM] | IC50 (K562) [µM] | IC50 (PC3) [µM] | IC50 (143B) [µM] | IC50 (MDA-MB-231) [µM] | IC50 (Hela) [µM] | IC50 (TPC-1) [µM] | IC50 (SKOV-3) [µM] | IC50 (PANC-1) [µM] | solubility [1, 6] [µg/mL] | solubility [1, 7] [µg/mL] | also measured
1 | CCc1c2c(nc3ccc(OC(=O)N4CCC(N5CCCCC5)CC4)cc13)-c1cc3c(c(=O)n1C2)COC(=O)[C@]3(O)CC [CPT-11, Irinotecan hydrochloride, reference compound] | 843 | 6300 | 7.38 | 12.8 | 14.1 | 35 | 29.1 | 22.1 | 9.15 | 11.7 | 10.7 | 25.1 | 20.3 | 14.4 | 12 | 25 | 16.5 | 22 | – | – | solubility ([1]; 0.1% aqueous solution of Tween-80, aqueous with cosolvent or surfactant or cyclodextrin, read-out: Solubility in 0.1% Tween-80): 597 µg/mL; solubility ([1]; normal saline, saline or isotonic, read-out: Solubility in Normal Saline (NS)): 1220 µg/mL; Mouse Weight ([2]; day 0): 16.53 g; Mouse Weight ([2]; day 3): 15.87 g; Mouse Weight ([2]; day 6): 16.10 g; Mouse Weight ([2]; day 9): 16.96 g; Mouse Weight ([2]; day 12): 16.53 g; Mouse Weight ([2]; day 15): 16.86 g; Mouse Weight ([2]; day 18): 16.27 g; Mouse Weight ([2]; day 21): 17.28 g
2 | CCc1c2c(nc3ccc(OC(=O)NCCCOCc4cn([C@H]5O[C@@H](CO)[C@H](O)[C@@H](O)[C@@H]5O)nn4)cc13)-c1cc3c(c(=O)n1C2)COC(=O)[C@]3(O)CC [Compound 80] | 792 (≈ 1080 µM) | 82.5 (≈ 112 µM) | 1.43 | 6.94 | 5.15 | 6.13 | 10.7 | 9.33 | 1.19 | 5.78 | 4.29 | 5.11 | 8.9 | 7.78 | 7.36 | 12.8 | 11.2 | 7.36 | 961 (≈ 1300 µM) | 642 (≈ 871 µM) | –
3 | CCc1c2c(nc3ccc(OC(=O)NCCCOCc4cn(CCO[C@H]5O[C@@H](CO)[C@H](O)[C@@H](O)[C@@H]5O)nn4)cc13)-c1cc3c(c(=O)n1C2)COC(=O)[C@]3(O)CC [Compound 81] | 895 (≈ 1150 µM) | 985 (≈ 1260 µM) | 0.851 | 9.42 | 7.24 | 8.32 | 9.68 | 6.25 | 0.709 | 7.85 | 6.03 | 6.93 | 8.06 | 5.21 | 9.98 | 11.6 | 7.5 | 9.98 | 1210 (≈ 1550 µM) | 985 (≈ 1260 µM) | –
4 | CCc1c2c(nc3ccc(OC(=O)NCCCCCOCc4cn([C@H]5O[C@@H](CO)[C@H](O)[C@@H](O)[C@@H]5O)nn4)cc13)-c1cc3c(c(=O)n1C2)COC(=O)[C@]3(O)CC [Compound 87] | 910 (≈ 1190 µM) | 1050 (≈ 1370 µM) | 1.15 | 7.36 | 1.52 | 6.35 | 5.12 | 7.35 | 0.96 | 6.14 | 1.27 | 5.29 | 4.27 | 6.12 | 7.62 | 6.15 | 8.82 | 7.62 | 1110 (≈ 1450 µM) | 894 (≈ 1170 µM) | –
5 | CCc1c2c(nc3ccc(OC(=O)NCCCCCOCc4cn(CCO[C@H]5O[C@@H](CO)[C@H](O)[C@@H](O)[C@@H]5O)nn4)cc13)-c1cc3c(c(=O)n1C2)COC(=O)[C@]3(O)CC [Compound 88] | 895 (≈ 1110 µM) | 1130 (≈ 1390 µM) | 0.865 | 9.1 | 2.73 | 9.13 | 6.98 | 6.22 | 0.721 | 7.58 | 2.27 | 7.61 | 5.82 | 5.18 | 11 | 8.38 | 7.46 | 11 | 1350 (≈ 1670 µM) | 870 (≈ 1080 µM) | –
6 | CCc1c2c(nc3ccc(O)cc13)-c1cc3c(c(=O)n1C2)COC(=O)[C@]3(O)CC [SN38, reference compound] | – | – | – | – | – | – | – | – | – | – | – | – | – | – | – | – | – | – | – | – | Solubility in 0.1% Tween-80 ([1]; 0.1% aqueous solution of Tween-80): 77.4 µg/mL (≈ 197 µM); Solubility in PBS (pH = 7.4) ([1]; PBS pH 7.4): 17.6 μg/mL; Solubility in Normal Saline (NS) ([1]; normal saline): 7.5 µg/mL (≈ 19.1 µM); solubility in water, normal saline, PBS (PH 7.4) and 0.1% aqueous solution of Tween-80 (in words) ([1]; summary of Table 1): very low solubility; Solubility in Water ([1]; water): 7.7 µg/mL (≈ 19.6 µM); in vitro antitumor activity relative to irinotecan (tumor): 100-1000 times; solubility (in words) [3]: almost insoluble in common drug solvents and water
